15 molecules from US20260308172A1, “TRICYCLIC COMPOUNDS FOR TREATMENT OF BACTERIAL INFECTIONS” (priority 2023, published 2026) can be followed below.

Converted amounts (≈) assume the structure as drawn.

Series [1] has as its system Escherichia coli ATCC 25922. The series is described as follows: Minimal Inhibitory Concentration (MIC) assay, Escherichia coli ATCC 25922. It is filed as cell-based. Particulars: ATCC25922, 20 h, read-out: MIC Escherichia coli ATCC25922. How it is done:
(§1) The antibacterial activity of the compounds of the present invention was evaluated against the commonly used quality control strain Escherichia coli ATCC 25922 and the rifampin-resistant mutant strain Klebsiella pneumonia ATCC 43816. Both were originally derived from human clinical samples and are available from ATCC (American Type Culture Collection). The in vitro potency of compounds to inhibit Escherichia coli (ATCC 25922) and Klebsiella pneumonia (ATCC 43816) growth was assessed by the MIC (Minimal Inhibitory Concentration) broth dilution method. Specifically compound dilutions were prepared from 10 mM DMSO stock solutions as follows: i) serial 2-fold dilution in 20 μL DMSO were prepared in a master plate (Greiner, Cat No: 651201), ii) 180 μL sterile distilled water was added to each aliquot and iii) 10 μL diluted compounds were transferred into a new assay plate (Costar, 3599).
(§2) Vials of each test microorganisms were maintained frozen in the vapor phase of a liquid nitrogen freezer. Single-use frozen vials of the two strains Escherichia coli ATCC 25922 (KWIKSTIK, 0335K) and Klebsiella pneumonia ATCC 43816, with predetermined CFU/mL, were taken out from the freezer, thawed at room temperature, and diluted in Cation-Adjusted Mueller Hinton Broth (CAMHB) to achieve a final inoculum of 5×10^5 CFU/mL. 90 μL bacteria containing broth was dispensed to the assay plate containing the pre-dispensed compound dilutions and mixed by pipetting 5 times.
(§3) Then the assay plates were incubated for 20 hours at 35° C. in ambient air. Following incubation, the MIC (μg/mL), the lowest concentration of drug that inhibits visible growth of the microorganism was read with the help of a magnification mirror and recorded.

The nature of series [2]: Human Microsome Stability Assay. It is filed as in vitro ADME. The settings on record: 1 μM compound, 0.5 mg/mL liver microsomal protein, 1 mM NADPH, pH 7.4, 37° C., 0-30 minutes; for CLint scaled at 1 µM: human, liver microsomes, read-out: Clearance of Human microsome. How it is done:
The human microsomal stability assay is used for early assessment of metabolic stability of compounds of present invention in human liver microsomes. Human liver microsomes (Cat. NO.: 452117, Corning, USA) were pre-incubated with test compound for 10 minutes at 37° C. in 100 mM potassium phosphate buffer, pH 7.4. The reactions were initiated by adding NADPH regenerating system. The final incubation mixtures contained 1 μM compound, 0.5 mg/mL liver microsomal protein, 1 mM MgCl2 and 1 mM NADPH in 100 mM potassium phosphate buffer, pH 7.4. After incubation times of 0, 3, 6, 9, 15 and 30 minutes at 37° C., 300 μL of cold acetonitrile (including internal standard) was added to 100 μL incubation mixture to terminate the reaction. Following precipitation and centrifugation, the amount of compound remaining in the samples were determined by LC-MS/MS. Controls of no NADPH regenerating system at zero and 30 minutes were also prepared and analyzed.
On the technique in general: Microsomes from liver hold many membrane-bound enzymes, among them those of drug oxidation.

The subject of series [3] is Klebsiella pneumonia ATCC 43816. The series is described as follows: Minimal Inhibitory Concentration (MIC) assay, Klebsiella pneumonia ATCC 43816. It is filed as cell-based. Particulars: Klebsiella pneumoniae, ATCC43816, 20 h, read-out: MIC Klebsiella pneumoniae ATCC43816. How it is done:
as §1, §2, §3

What is called MIC is the least concentration at which growth counts as inhibited. Regarding `C[N+]1(CCN)CCC[C@H]1C(=O)N[C@H]1CC[C@H](C(F)(F)c2cc(Cl)nc(N3CCN(S(=O)(=O)c4ccc5c(c4)OC[C@@H]4[C@H](CO)OC(=O)N54)CC3)c2)CC1` (stereo in doubt) [Example 062, (2S)-1-(2-aminoethyl)-N-[4-[[2-chloro-6-[4-[[(3R,3aR)-3-(hydroxymethyl)-1-oxo-3a,4-dihydro-3H-oxazolo[4,3-c][1,4]benzoxazin-7-yl]sulfonyl]piperazin-1-yl]-4-pyridyl]-difluoro-methyl]cyclohexyl]-1-methyl-pyrrolidin-1-ium-2-carboxamide;chloride], the MIC in series [1] and in series [3] was 0.67 µg/mL throughout. Moreover, the “Clearance of Human microsome” value in series [2] was found to be 6.2 mL/min/kg.
On to `Cc1cc(C(F)(F)F)nc(N2CCN(S(=O)(=O)c3ccc4c(c3)OC[C@H]3[C@@H](CN5CC(N)C5)OC(=O)N43)CC2)n1` [Example 025, (3R,3aS)-3-[(3-aminoazetidin-1-yl)methyl]-7-[4-[4-methyl-6-(trifluoromethyl)pyrimidin-2-yl]piperazin-1-yl]sulfonyl-3a,4-dihydro-3H-oxazolo[4,3-c][1,4]benzoxazin-1-one], for which the MIC in series [1] stood at 0.91 µg/mL (≈ 1.56 µM); in series [3] it was 1.82 µg/mL (≈ 3.12 µM). Further, the CLint scaled at 1 µM in series [2] was 12.2 mL/min/kg.
In the case of `Cc1cc(C(F)(F)F)nc(N2CCN(S(=O)(=O)c3ccc4c(c3)OC[C@H]3[C@@H](CN5CC(CN)C5)OC(=O)N43)CC2)n1` [Example 026, (3R,3aS)-3-[[3-(aminomethyl)azetidin-1-yl]methyl]-7-[4-[4-methyl-6-(trifluoromethyl)pyrimidin-2-yl]piperazin-1-yl]sulfonyl-3a,4-dihydro-3H-oxazolo[4,3-c][1,4]benzoxazin-1-one], the results for the MIC in series [1] and in series [3] were 1.1 µg/mL (≈ 1.84 µM) and 1.67 µg/mL (≈ 2.79 µM), respectively. Besides, the CLint scaled at 1 µM in series [2] is 10.8 mL/min/kg.
For `O=C1O[C@@H](CO)[C@H]2COc3cc(S(=O)(=O)N4CCN(c5cc(C(F)(F)C6CCNCC6)cc(Cl)n5)CC4)ccc3N12` [Example 028, (3R,3aR)-7-[4-[6-chloro-4-[difluoro(4-piperidyl)methyl]-2-pyridyl]piperazin-1-yl]sulfonyl-3-(hydroxymethyl)-3a,4-dihydro-3H-oxazolo[4,3-c][1,4]benzoxazin-1-one], in that order: 0.57 µg/mL (≈ 0.928 µM), 0.57 µg/mL (≈ 0.928 µM) and 10.5 mL/min/kg.
For `O=C1O[C@H](CO)[C@@H]2COc3cc(S(=O)(=O)N4CCN(c5cc(C(F)(F)C6CCNCC6)cc(Cl)n5)CC4)ccc3N12` [Example 029, (3S,3aS)-7-[4-[6-chloro-4-[difluoro(4-piperidyl)methyl]-2-pyridyl]piperazin-1-yl]sulfonyl-3-(hydroxymethyl)-3a,4-dihydro-3H-oxazolo[4,3-c][1,4]benzoxazin-1-one], in that order: 1.1 µg/mL (≈ 1.79 µM), 1.14 µg/mL (≈ 1.85 µM) and 11.6 mL/min/kg.
On to `O=C1O[C@@H](CO)[C@H]2COc3cc(S(=O)(=O)N4CCN(c5cc(C(F)(F)C6C7CNCC76)cc(Cl)n5)CC4)ccc3N12` (stereo partly drawn) [Example 034, (3R,3aR)-7-[4-[4-[3-azabicyclo[3.1.0]hexan-6-yl(difluoro)methyl]-6-chloro-2-pyridyl]piperazin-1-yl]sulfonyl-3-(hydroxymethyl)-3a,4-dihydro-3H-oxazolo[4,3-c][1,4]benzoxazin-1-one], for which the values for the MIC in series [1] and in series [3] were 0.28 µg/mL (≈ 0.457 µM) and 0.57 µg/mL (≈ 0.931 µM), respectively. The CLint scaled at 1 µM in series [2] is 12.7 mL/min/kg.
Regarding `O=C1O[C@@H](CO)[C@H]2COc3cc(S(=O)(=O)N4CCN(c5cc(C(F)(F)C6CNC6)cc(Cl)n5)CC4)ccc3N12` [Example 035, (3R,3aR)-7-[4-[4-[azetidin-3-yl(difluoro)methyl]-6-chloro-2-pyridyl]piperazin-1-yl]sulfonyl-3-(hydroxymethyl)-3a,4-dihydro-3H-oxazolo[4,3-c][1,4]benzoxazin-1-one], the MIC stood at 2.2 µg/mL (≈ 3.75 µM) in series [1] and 2.19 µg/mL (≈ 3.74 µM) in series [3]. Further, in series [2], the CLint scaled at 1 µM stood at 10.9 mL/min/kg.
For `O=C1O[C@H](CO)[C@H]2COc3cc(S(=O)(=O)N4CCN(c5cc(C(F)(F)C6CCNCC6)cc(Cl)n5)CC4)ccc3N12` [Example 037, (3S,3aR)-7-[4-[6-chloro-4-[difluoro(4-piperidyl)methyl]-2-pyridyl]piperazin-1-yl]sulfonyl-3-(hydroxymethyl)-3a,4-dihydro-3H-oxazolo[4,3-c][1,4]benzoxazin-1-one], in that order: 1.1 µg/mL (≈ 1.79 µM), 1.14 µg/mL (≈ 1.86 µM) and 10.9 mL/min/kg.
As for `O=C1O[C@@H](CO)[C@@H]2COc3cc(S(=O)(=O)N4CCN(c5cc(C(F)(F)C6CCNCC6)cc(Cl)n5)CC4)ccc3N12` [Example 038, (3R,3aS)-7-[4-[6-chloro-4-[difluoro(4-piperidyl)methyl]-2-pyridyl]piperazin-1-yl]sulfonyl-3-(hydroxymethyl)-3a,4-dihydro-3H-oxazolo[4,3-c][1,4]benzoxazin-1-one], the MIC in series [1] and in series [3] was 0.57 µg/mL (≈ 0.928 µM) each time. Besides, in series [2], the CLint scaled at 1 µM was 11.1 mL/min/kg.
On to `O=C1O[C@@H](CO)[C@H]2COc3cc(S(=O)(=O)N4CCN(c5cc(C(F)(F)C6CC7(CNC7)C6)cc(Cl)n5)CC4)ccc3N12` [Example 039, (3R,3aR)-7-[4-[4-[2-azaspiro[3.3]heptan-6-yl(difluoro)methyl]-6-chloro-2-pyridyl]piperazin-1-yl]sulfonyl-3-(hydroxymethyl)-3a,4-dihydro-3H-oxazolo[4,3-c][1,4]benzoxazin-1-one], for which the minimal inhibitory concentration (MIC) in series [1] amounted to 0.87 µg/mL (≈ 1.39 µM); in series [3] it was 1.16 µg/mL (≈ 1.85 µM). Also, the “Clearance of Human microsome” value in series [2] was 6.2 mL/min/kg.
Take `NC1CCC(Oc2cc(Cl)nc(N3CCN(S(=O)(=O)c4ccc5c(c4)OC[C@@H]4[C@H](CO)OC(=O)N54)CC3)c2)CC1` (stereo partly drawn) [Example 042, (3R,3aR)-7-[4-[4-(4-aminocyclohexoxy)-6-chloro-2-pyridyl]piperazin-1-yl]sulfonyl-3-(hydroxymethyl)-3a,4-dihydro-3H-oxazolo[4,3-c][1,4]benzoxazin-1-one]: the MIC in series [1] turned out to be 2.2 µg/mL (≈ 3.7 µM); in series [3] it was 2.21 µg/mL (≈ 3.72 µM). Moreover, the CLint scaled at 1 µM in series [2] was found to be 6.7 mL/min/kg.
On to `NC1CCC(Oc2cc(Cl)nc(N3CCN(S(=O)(=O)c4ccc5c(c4)OCC4C(N)CC(=O)N54)CC3)c2)CC1` (stereo not drawn) [Example 043, 3-Amino-7-[4-[4-(4-aminocyclohexoxy)-6-chloro-2-pyridyl]piperazin-1-yl]sulfonyl-2,3,3a,4-tetrahydropyrrolo[2,1-c][1,4]benzoxazin-1-one], for which the MIC worked out at 4.3 µg/mL (≈ 7.45 µM) in series [1] and 8.64 µg/mL (≈ 15 µM) in series [3]. For the same molecule, in series [2], the “Clearance of Human microsome” value is recorded as 6.2 mL/min/kg.
For `NCCCNC(=O)/C=C/C(F)(F)c1cc(Cl)nc(N2CCN(S(=O)(=O)c3ccc4c(c3)OC[C@@H]3[C@H](CO)OC(=O)N43)CC2)c1` [Example 044, (E)-4-[2-[4-[[(3R,3aR)-3-(hydroxymethyl)-1-oxo-3a,4-dihydro-3H-oxazolo[4,3-c][1,4]benzoxazin-7-yl]sulfonyl]piperazin-1-yl]-6-chloro-4-pyridyl]-N-(3-aminopropyl)-4,4-difluoro-but-2-enamide], the MIC in series [1] stood at 2.4 µg/mL (≈ 3.65 µM); in series [3], 2.41 µg/mL (≈ 3.67 µM). The CLint scaled at 1 µM in series [2] came to 7 mL/min/kg.
Regarding `NCCCNC(=O)[C@H]1CC[C@H](C(F)(F)c2cc(Cl)nc(N3CCN(S(=O)(=O)c4ccc5c(c4)OCC4C(N)CC(=O)N54)CC3)c2)CC1` (stereo partly drawn) [Example 045, 4-[[2-[4-[(3-Amino-1-oxo-2,3,3a,4-tetrahydropyrrolo[2,1-c][1,4]benzoxazin-7-yl)sulfonyl]piperazin-1-yl]-6-chloro-4-pyridyl]-difluoro-methyl]-N-(3-aminopropyl)cyclohexanecarboxamide], the minimal inhibitory concentration (MIC) in series [1] and in series [3] was 0.63 µg/mL (≈ 0.905 µM) in each case. For the same molecule, the CLint scaled at 1 µM in series [2] amounted to 8.9 mL/min/kg.
For `NCCCNC(=O)[C@H]1CC[C@H](C(F)(F)c2cc(Cl)nc(N3CCN(S(=O)(=O)c4ccc5c(c4)OC[C@@H]4[C@H](CO)OC(=O)N54)CC3)c2)CC1` [Example 046, 4-[[2-[4-[[(3R,3aR)-3-(hydroxymethyl)-1-oxo-3a,4-dihydro-3H-oxazolo[4,3-c][1,4]benzoxazin-7-yl]sulfonyl]piperazin-1-yl]-6-chloro-4-pyridyl]-difluoro-methyl]-N-(3-aminopropyl)cyclohexanecarboxamide], the minimal inhibitory concentration (MIC) in series [1] and in series [3] was 0.32 µg/mL (≈ 0.449 µM) each time. The “Clearance of Human microsome” value in series [2] amounted to 6.2 mL/min/kg.
